Measured values reported in the CheMixHub viscosity set.

Assay: xn = mol fraction of the nth substance listed

CCCCC + CO
Settings	viscosity [mPa·s]
293.15 K, 101 kPa, x1 = 0.0471	0.5884
293.15 K, 101 kPa, x1 = 0.0999	0.5839
293.15 K, 101 kPa, x1 = 0.1602	0.5769
293.15 K, 101 kPa, x1 = 0.2288	0.5663
293.15 K, 101 kPa, x1 = 0.3074	0.5509
293.15 K, 101 kPa, x1 = 0.3999	0.5282
293.15 K, 101 kPa, x1 = 0.5084	0.4953
293.15 K, 101 kPa, x1 = 0.6397	0.4464
293.15 K, 101 kPa, x1 = 0.7999	0.3733
298.15 K, 101.33 kPa, x2 = 0.0464	0.245
298.15 K, 101.33 kPa, x2 = 0.0696	0.249
298.15 K, 101.33 kPa, x2 = 0.1597	0.265
298.15 K, 101.33 kPa, x2 = 0.2228	0.279
298.15 K, 101.33 kPa, x2 = 0.4412	0.327
298.15 K, 101.33 kPa, x2 = 0.6294	0.384
298.15 K, 101.33 kPa, x2 = 0.741	0.424
298.15 K, 101.33 kPa, x2 = 0.7958	0.445
298.15 K, 101.33 kPa, x2 = 0.9419	0.518
298.15 K, 101.33 kPa, x2 = 0.9734	0.537
303.15 K, 101 kPa, x1 = 0.0471	0.5267
303.15 K, 101 kPa, x1 = 0.0999	0.5186
303.15 K, 101 kPa, x1 = 0.1602	0.5081
303.15 K, 101 kPa, x1 = 0.2288	0.4945
303.15 K, 101 kPa, x1 = 0.3074	0.4767
303.15 K, 101 kPa, x1 = 0.3999	0.4529
303.15 K, 101 kPa, x1 = 0.5084	0.421
303.15 K, 101 kPa, x1 = 0.6397	0.3765
303.15 K, 101 kPa, x1 = 0.7999	0.3135
313.15 K, 101 kPa, x1 = 0.0471	0.5012
313.15 K, 101 kPa, x1 = 0.0999	0.4866
313.15 K, 101 kPa, x1 = 0.1602	0.4694
313.15 K, 101 kPa, x1 = 0.2288	0.4492
313.15 K, 101 kPa, x1 = 0.3074	0.4254
313.15 K, 101 kPa, x1 = 0.3999	0.3963
313.15 K, 101 kPa, x1 = 0.5084	0.3607
313.15 K, 101 kPa, x1 = 0.6397	0.3156
313.15 K, 101 kPa, x1 = 0.7999	0.2574

CS(C)=O + CO
Settings	viscosity [mPa·s]
298.15 K, 101 kPa, x1 = 0.2	0.705
298.15 K, 101 kPa, x1 = 0.4	0.942
298.15 K, 101 kPa, x1 = 0.6	1.212
298.15 K, 101 kPa, x1 = 0.8	1.581
298.15 K, 101.3 kPa, x1 = 0.0439	0.583
298.15 K, 101.3 kPa, x1 = 0.093	0.616
298.15 K, 101.3 kPa, x1 = 0.1279	0.642
298.15 K, 101.3 kPa, x1 = 0.2139	0.708
298.15 K, 101.3 kPa, x1 = 0.2908	0.792
298.15 K, 101.3 kPa, x1 = 0.3809	0.884
298.15 K, 101.3 kPa, x1 = 0.4902	1.03
298.15 K, 101.3 kPa, x1 = 0.6224	1.259
298.15 K, 101.3 kPa, x1 = 0.7858	1.564
298.15 K, 101.3 kPa, x1 = 0.8923	1.768
298.15 K, 101.3 kPa, x1 = 0.9667	1.923
298.15 K, 101.31 kPa, x1 = 0.1531	0.66
298.15 K, 101.31 kPa, x1 = 0.1961	0.695
298.15 K, 101.31 kPa, x1 = 0.2939	0.792
298.15 K, 101.31 kPa, x1 = 0.4044	0.917
298.15 K, 101.31 kPa, x1 = 0.533	1.064
298.15 K, 101.31 kPa, x1 = 0.6303	1.201
298.15 K, 101.31 kPa, x1 = 0.7167	1.379
298.15 K, 101.31 kPa, x1 = 0.817	1.586
298.15 K, 101.31 kPa, x1 = 0.8886	1.737
299 K, 101 kPa, x1 = 0.0375	0.9137
299 K, 101 kPa, x1 = 0.119	1.048
299 K, 101 kPa, x1 = 0.2599	1.264
299 K, 101 kPa, x1 = 0.3691	1.384
299 K, 101 kPa, x1 = 0.4937	1.964
299 K, 101 kPa, x1 = 0.7172	2.348
303.15 K, 101.3 kPa, x1 = 0.0439	0.544
303.15 K, 101.3 kPa, x1 = 0.093	0.566
303.15 K, 101.3 kPa, x1 = 0.1279	0.583
303.15 K, 101.3 kPa, x1 = 0.2139	0.661
303.15 K, 101.3 kPa, x1 = 0.2908	0.741
303.15 K, 101.3 kPa, x1 = 0.3809	0.82
303.15 K, 101.3 kPa, x1 = 0.4902	0.937
303.15 K, 101.3 kPa, x1 = 0.6224	1.11
303.15 K, 101.3 kPa, x1 = 0.7858	1.368
303.15 K, 101.3 kPa, x1 = 0.8923	1.573
303.15 K, 101.3 kPa, x1 = 0.9667	1.713
308.15 K, 101.31 kPa, x1 = 0.1531	0.581
308.15 K, 101.31 kPa, x1 = 0.1961	0.612
308.15 K, 101.31 kPa, x1 = 0.2939	0.694
308.15 K, 101.31 kPa, x1 = 0.4044	0.798
308.15 K, 101.31 kPa, x1 = 0.533	0.92
308.15 K, 101.31 kPa, x1 = 0.6303	1.03
308.15 K, 101.31 kPa, x1 = 0.817	1.336
308.15 K, 101.31 kPa, x1 = 0.8886	1.454
318.15 K, 101.31 kPa, x1 = 0.1531	0.514
318.15 K, 101.31 kPa, x1 = 0.1961	0.544
318.15 K, 101.31 kPa, x1 = 0.2939	0.613
318.15 K, 101.31 kPa, x1 = 0.533	0.804
318.15 K, 101.31 kPa, x1 = 0.6303	0.894
318.15 K, 101.31 kPa, x1 = 0.817	1.141
318.15 K, 101.31 kPa, x1 = 0.8886	1.194
